Experimental data taken from patent publication US20090181910A1, “METHOD OF PREVENTION AND ALLEVIATION OF TOXICITY BY MODULATION OF IRF3” (priority 2006, published 2009).

Columns and labels:
RXRα promoter region = experiment: ChIP of Hes1 and HDAC1 in BMMs; assay type: cell-based, Murine; details: polyI:C 1 μg/ml 1, 3 and 6 hours; FIG. 9e,f
Description: FIG. 9: PolyI:C transcriptionally represses RXRα through recruitment of transcriptional repression machinery. a, BMMs were stimulated with media or polyI:C (1 μg/ml) for 2 hrs, followed by actinomycin D (ActD) (5 μg/ml) for 0, 15, 30, 60, 120 min. BMMs were stimulated with polyI:C (1 μg/ml) for 4 hrs or 8 hrs. RNA was analyzed by Q-PCR. b, Diagram of RXRα promoter based on promoter analysis software (MatInspector). BMMs were stimulated with LPS (10 ng/ml) or polyI:C (1 μg/ml) for 4 hrs. RNA was analyzed by Q-PCR. Wildtype, IRF3^−/− and IFNAR^−/− BMMs were stimulated with polyI:C (1 μg/ml) for 4 hrs. RNA was analyzed by Q-PCR. c, pCMV-RAW 264.7 cells (MT) or pCMV-Hes1-RAW 264.7 cells (Hes1) RNA was analyzed by Q-PCR. d, RAW264.7 cells transfected with siNS or siHes1 duplex oligos were stimulated with polyI:C (1 μg/ml) for 8 hours. RNA was analyzed by Q-PCR. e, f, BMMs were stimulated with polyI:C (1 μg/ml) for 1, 3 and 6 hours. Following stimulation, chromatin immunoprecipitation (ChIP) was performed with anti-Hes1 or anti-HDAC1 antibodies on sonicated samples, washed thoroughly and analyzed by PCR/agarose gel electrophoresis. PCR products on gel are quantified by ImageJ, normalized to Input. g, BMMs were pre-treated with Trichostatin A (TSA) (50 ng/ml) overnight and then stimulated with polyI:C (1 μg/ml) for 4 and 8 hrs. RNA was analyzed by Q-PCR. […]

RXRα = experiment: RAW264.7 cells with siHes1, Q-PCR: RXRα mRNA; assay type: cell-based, murine; details: siRNA specific to Hes1, polyI:C 1 μg/ml 8 hours; FIG. 9d
ZF5 = experiment: BMM Q-PCR: ZF5 mRNA; assay type: cell-based, Murine; details: polyI:C and LPS; data not shown
[1] = H&E liver histology in APAP hepatotoxicity; details: for prevention of APAP-induced necrosis: FIG. 3A
Cyp3A11 [2] = details: mouse, in vivo
Cyp3A11 [3] = experiment: Liver RNA Q-PCR, polyI:C/APAP-treated mice: Cyp3A11; details: polyI:C 100 μg i.v.; FIG. 1C

polyinosinic:polycytidylic acid [polyI:C]
recruitment of Hes1 and HDAC1 (ChIP) (RXRα promoter region): promotes specific recruitment of Hes1 and HDAC1 to the RXRα promoter region | polyI:C-mediated repression of RXRα with Hes1 knockdown (RXRα): requirement of Hes1 in polyI:C-mediated repression of RXRα | ZF5 mRNA levels (ZF5): unaffected | prevention of cell necrosis ([1]; PCN or ethanol plus lower levels of APAP, FIG. 3B): prevents cell necrosis in these treatments as well | prevention of APAP-induced necrosis ([1]; mice deficient in IRF3, APAP 350 mg/kg): only slightly reduced the severity of necrosis | prevention of APAP-induced necrosis ([1]; wildtype mice, APAP 350 mg/kg): completely prevented such necrosis | effect on ASA or PCN induction of CYP3A11 mRNA (Cyp3A11 [2]): diminished | effect on induction of CYP3A11 by PCN (Cyp3A11 [2]): blunted the induction of CYP3A11 by PCN | basal Cyp3A11 mRNA level in liver (Cyp3A11 [3]): potently repressed
